Data as given in article PMC10706087, “The Subtype Selectivity in Search of Potent Hypotensive Agents among 5,5-Dimethylhydantoin Derived α1-Adrenoceptors Antagonists” (International Journal of Molecular Sciences, 2023).
Values joined by “and” are separate entries in the source; they are usually repeats but may differ in a detail not shown here. Identical values can stand only once.

Assays:
[1] = target: α1-adrenoceptors (α1-ARs), rat cerebral cortex; experiment: Radioligand binding assay with [3H]-prazosin, affinity for α1-ARs; details: three independent experiments in duplicates, read-out: α1-adrenoceptor affinity Ki
Description: In the first step, all synthesized compounds (1–15) were tested in vitro for their affinity for α1-ARs on rat cerebral cortex by the radioligand binding assay using [^3H]-prazosin as a specific radioligand.
The affinity for α1-ARs was determined by radioligand binding assay on rat cerebral cortex using [3H]-prazosin as a specific radioligand. The brains were homogenized in 20 volumes of an ice-cold 50 mM Tris-HCl buffer (pH 7.6) and were centrifuged (MPW Med. Instruments, Warsaw, Poland) at 20,000× g for 20 min (0–4 °C). The cell pellet was resuspended in the Tris-HCl buffer and centrifuged again. Radioligand-binding assay was performed in plates (MultiScreen/Millipore, Burlington, MA, USA). The final incubation mixture (final volume 300 μL) consisted of 240 μL of the membrane suspension, 30 μL of [3H]-Prazosin (0.2 nM) solution, and 30 μL of the buffer containing seven to eight concentrations (10^−11 to 10^−4 M) of the tested compounds. For measuring the unspecific binding, phentolamine, 10 μM (in the case of [3H]-Prazosin) was applied. The incubation was terminated by rapid filtration over glass fiber filters (Whatman GF/C, Sigma-Aldrich) using a vacuum manifold (Millipore). The filters were then washed twice with the assay buffer and placed in scintillation vials with a liquid-scintillation cocktail. Radioactivity was measured in a WALLAC 1409 DSA liquid-scintillation counter (BioSurplus, San Diego, CA, USA).
(§1) All statistics were performed using GraphPad Prism, Version 6.0 (GraphPad Software, San Diego, CA, USA). In the radioligand binding study, data were analyzed by a one-site curve-fitting equation, and inhibition constants (Ki) values were calculated via the Cheng-Prusoff equation [63]. In functional studies, data were analyzed using a sigmoidal dose-response (variable slope) equation. Arterial blood pressure data were analyzed using a two-way ANOVA with Sidak’s post-hoc test for multiple comparisons. A p < 0.05 was considered statistically significant.

[2] = target: T1, human adrenergic receptor α1A (Homo sapiens, UniProt P35348); experiment: Intrinsic activity, aequorin luminescence functional assay at α1A-AR; format: cell-based; details: for α1A-AR Profile: agonist/antagonist profile; for IC50: cells expressing aequorin and human α1A, against phenylephrine, means of three independent experiments in duplicates; for Selectivity Ratio α1B/α1A: selectivity for α1A-AR (IC50(α1B-AR)/IC50(α1A-AR))
T1 sequence (P35348 1-466): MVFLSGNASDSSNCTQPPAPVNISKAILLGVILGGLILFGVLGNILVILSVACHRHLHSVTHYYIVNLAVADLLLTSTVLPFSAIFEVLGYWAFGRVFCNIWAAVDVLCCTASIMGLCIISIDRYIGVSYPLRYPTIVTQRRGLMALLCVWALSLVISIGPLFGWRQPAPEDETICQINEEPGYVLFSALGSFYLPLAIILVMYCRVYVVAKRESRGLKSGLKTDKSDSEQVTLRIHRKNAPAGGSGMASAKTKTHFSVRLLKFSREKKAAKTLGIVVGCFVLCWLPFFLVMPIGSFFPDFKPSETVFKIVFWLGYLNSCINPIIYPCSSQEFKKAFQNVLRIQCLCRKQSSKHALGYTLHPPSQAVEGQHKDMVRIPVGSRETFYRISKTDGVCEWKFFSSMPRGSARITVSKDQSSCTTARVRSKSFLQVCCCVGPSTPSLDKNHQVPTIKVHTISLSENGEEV
Description: (§2) The subtype selectivity for α1A and α1B was calculated as IC50(α1B-AR)/IC50(α1A-AR) and IC50(α1A-AR)/IC50(α1B-AR) ratio, respectively.
(§3) Intrinsic activity at the α1-AR subtypes studies were performed using the cells expressing mitochondrially-targeted aequorin and one of the human adrenergic receptor α1A or α1B (PerkinElmer, Boston, MA, USA), according to the manufacturer’s instructions. For measurement, frozen cells were thawed and re-suspended in 10 mL of assay buffer containing 5 μM “Coelenterazine h”. This cell suspension was put in a 10 mL Falcon tube, fixed onto a rotating heel, and incubated overnight at rt in the dark (8 rpm; 45° angle). Cells were diluted with Assay Buffer to 5000 cells/20 μL. […] The light emitted was recorded for 20 s. Cells with antagonists were incubated for 15 min at room temperature. […] Luminescence was measured using the multidetection microplate reader (POLARstar Omega, BMG LABTECH, Ortenberg, Germany).
as §1

[3] = target: T2, human adrenergic receptor α1B (Homo sapiens, UniProt P35368); experiment: Intrinsic activity, aequorin luminescence functional assay at α1B-AR; format: cell-based; details: for α1B-AR Profile: agonist/antagonist profile; for IC50: cells expressing aequorin and human α1B, against phenylephrine, means of three independent experiments in duplicates; for Selectivity Ratio α1A/α1B: selectivity for α1B-AR (IC50(α1A-AR)/IC50(α1B-AR))
T2 sequence (P35368 1-520): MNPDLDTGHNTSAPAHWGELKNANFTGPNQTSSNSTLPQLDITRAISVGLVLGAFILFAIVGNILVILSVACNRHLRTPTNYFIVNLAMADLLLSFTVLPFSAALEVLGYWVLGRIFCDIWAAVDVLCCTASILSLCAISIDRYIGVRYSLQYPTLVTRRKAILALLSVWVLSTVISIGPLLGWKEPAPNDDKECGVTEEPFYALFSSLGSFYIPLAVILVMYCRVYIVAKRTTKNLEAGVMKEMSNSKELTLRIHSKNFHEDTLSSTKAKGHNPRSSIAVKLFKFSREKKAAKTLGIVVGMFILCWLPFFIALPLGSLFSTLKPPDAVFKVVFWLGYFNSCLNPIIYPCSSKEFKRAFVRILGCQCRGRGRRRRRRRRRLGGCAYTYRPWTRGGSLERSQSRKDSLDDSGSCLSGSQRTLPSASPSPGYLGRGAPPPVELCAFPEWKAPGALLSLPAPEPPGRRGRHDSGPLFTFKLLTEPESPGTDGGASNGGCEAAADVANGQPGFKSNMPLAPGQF
Description: as §2, §3, §1

[4] = system: arterial blood pressure of normotensive Wistar rats; experiment: Influence on blood pressure in normotensive anesthetized rats after i.v. administration; format: in vivo, rat; details: for Diastolic blood pressure / Systolic blood pressure: mean, n = 6
Description: In the next step, the hypotensive activity of novel compounds 1–3, 5–9, and 11–14 was determined after i.v. administration to normotensive anesthetized rats. All results are shown in Supplementary Table S1.
The normotensive rats were anesthetized with thiopental (75 mg/kg) by intraperitoneal injection (i.p.). The left carotid artery was cannulated with a polyethylene tub filled with heparin in saline to facilitate pressure measurements using a PowerLab Apparatus (ADInstruments, Sydney, Australia). Blood pressure was measured immediately before administration of the tested compounds or vehicle—time 0 min (initial blood pressure) and 60 min thereafter. Initial blood pressure before administration of the tested chemicals in all experimental groups was similar. The tested compounds were dissolved in a specific vehicle: ethyl alcohol 5% − kolliphor 5% − water 90%. All tested chemicals were administrated intravenously (i.v.) at a constant volume of 1 mL/kg after 20 min of stabilization period. The compounds were tested at a starting dose of 2 mg/kg. If the hypotensive activity was found, the dose was reduced by half. The dosing was continued until the hypotensive effects disappeared. Urapidil was used as a reference compound.
as §1

[5] = 0.0625 mg/kg i.v., 0 min (initial, before administration)
[6] = i.v., normotensive anesthetized rats
[7] = 2.0 mg/kg i.v., 0 min (initial, before administration)

| Compound | Ki [1] [nM] | α1A-AR Profile [2] | IC50 [2] | Selectivity Ratio α1B/α1A [2] | α1B-AR Profile [3] | IC50 [3] | Selectivity Ratio α1A/α1B [3] | effect on systolic and diastolic blood pressure (in words) [4, 6] | melting point [°C] | Diastolic blood pressure [4, 7] | Systolic blood pressure [4, 7] | Diastolic blood pressure ([4]; 2.0 mg/kg i.v., 5 min) | Systolic blood pressure ([4]; 2.0 mg/kg i.v., 5 min) | Diastolic blood pressure ([4]; 2.0 mg/kg i.v., 10 min) | Systolic blood pressure ([4]; 2.0 mg/kg i.v., 10 min) | Diastolic blood pressure ([4]; 2.0 mg/kg i.v., 20 min) | Systolic blood pressure ([4]; 2.0 mg/kg i.v., 20 min) | Diastolic blood pressure ([4]; 2.0 mg/kg i.v., 30 min) | Systolic blood pressure ([4]; 2.0 mg/kg i.v., 30 min) | Diastolic blood pressure ([4]; 2.0 mg/kg i.v., 40 min) | other results |
| --- | --- | --- | --- | --- | --- | --- | --- | --- | --- | --- | --- | --- | --- | --- | --- | --- | --- | --- | --- | --- | --- |
| COc1ccccc1N1CCN(CCCCCCN2C(=O)N(Cc3ccc(Cl)cc3Cl)C(=O)C2(C)C)CC1.Cl [Compound 5, 3-(2,4-dichlorobenzyl)-1-(6-(4-(2-methoxyphenyl)piperazin-1-yl)hexyl)-5,5-dimethylimidazolidine-2,4-dione hydrochloride] | 12.7 | Antagonist | < 100 nM and 0.02 nM | 0.10 | Antagonist | < 100 nM and < 11 nM and 0.002 nM | 10.00 | statistically significant reduction | 205 to 207 |  |  |  |  |  |  |  |  |  |  |  | Diastolic blood pressure [4, 5]: 92.0; Systolic blood pressure [4, 5]: 128.8; Diastolic blood pressure ([4]; 0.0625 mg/kg i.v., 5 min): 87.7; Systolic blood pressure ([4]; 0.0625 mg/kg i.v., 5 min): 121.0; Diastolic blood pressure ([4]; 0.0625 mg/kg i.v., 10 min): 84.2; Systolic blood pressure ([4]; 0.0625 mg/kg i.v., 10 min): 116.8; Diastolic blood pressure ([4]; 0.0625 mg/kg i.v., 20 min): 81.7; Systolic blood pressure ([4]; 0.0625 mg/kg i.v., 20 min): 114.2; Diastolic blood pressure ([4]; 0.0625 mg/kg i.v., 30 min): 82.7; Systolic blood pressure ([4]; 0.0625 mg/kg i.v., 30 min): 113.3; Diastolic blood pressure ([4]; 0.0625 mg/kg i.v., 40 min): 81.7; Systolic blood pressure ([4]; 0.0625 mg/kg i.v., 40 min): 114.7; Diastolic blood pressure ([4]; 0.0625 mg/kg i.v., 50 min): 81.8; Systolic blood pressure ([4]; 0.0625 mg/kg i.v., 50 min): 116.8; Diastolic blood pressure ([4]; 0.0625 mg/kg i.v., 60 min): 83.3; Systolic blood pressure ([4]; 0.0625 mg/kg i.v., 60 min): 116.3; hypotensive dose lower than that of urapidil ([4]; 0.0625 vs. 1.0 mg/kg): 16 fold; lowest hypotensive (effective) dose [4, 6]: 0.0625 mg/kg |
| CC1(C)C(=O)N(Cc2ccc(Cl)cc2Cl)C(=O)N1CC(O)CN1CCN(c2ccccc2C#N)CC1.Cl (stereo not shown) [Compound 11, 3-(2,4-dichlorobenzyl)-1-(3-(4-(2-cyanophenyl)piperazin-1-yl)-2-hydroxypropyl)-5,5-dimethylimidazolidine-2,4-dione hydrochloride] | 26 | Antagonist | 162 nM | 2.21 | Antagonist | 359 nM | 0.45 | no significant changes | 147 to 149 | 91.7 | 128.5 | 84.0 | 117.0 | 80.7 | 112.8 | 79.7 | 113.0 | 79.8 | 112.5 | 82.0 | selectivity for α1A-AR over α1B-AR ([2]; from IC50 ratio): ~ 2 fold; Systolic blood pressure ([4]; 2.0 mg/kg i.v., 40 min): 113.8; Diastolic blood pressure ([4]; 2.0 mg/kg i.v., 50 min): 82.3; Systolic blood pressure ([4]; 2.0 mg/kg i.v., 50 min): 116.3; Diastolic blood pressure ([4]; 2.0 mg/kg i.v., 60 min): 81.7; Systolic blood pressure ([4]; 2.0 mg/kg i.v., 60 min): 118.2 |
| CC1(C)C(=O)N(Cc2ccc(Cl)cc2Cl)C(=O)N1CC(O)CN1CCN(c2ccccc2)CC1.Cl (stereo not shown) [Compound 6, 3-(2,4-dichlorobenzyl)-1-(2-hydroxy-3-(4-phenylpiperazin-1-yl)propyl)-5,5-dimethylimidazolidine-2,4-dione hydrochloride] | 53 | Antagonist | 5910 nM | 0.15 | Antagonist | 905 nM | 6.53 |  | 196 to 198 | 98.2 | 134.2 | 87.2 | 124.2 | 90.3 | 125.2 | 89.7 | 126.3 | 89.0 | 125.0 | 89.0 | Systolic blood pressure ([4]; 2.0 mg/kg i.v., 40 min): 126.7; Diastolic blood pressure ([4]; 2.0 mg/kg i.v., 50 min): 89.2; Systolic blood pressure ([4]; 2.0 mg/kg i.v., 50 min): 125.5; Diastolic blood pressure ([4]; 2.0 mg/kg i.v., 60 min): 88.7; Systolic blood pressure ([4]; 2.0 mg/kg i.v., 60 min): 125.8 |
| CC1(C)C(=O)N(Cc2ccc(Cl)cc2Cl)C(=O)N1CCCCCCN1CCN(c2ccc(Cl)c(Cl)c2)CC1.Cl [Compound 4, 3-(2,4-dichlorobenzyl)-1-(6-(4-(3,4-dichlorophenyl)piperazin-1-yl)hexyl)-5,5-dimethylimidazolidine-2,4-dione hydrochloride] | 255 |  |  |  |  |  |  |  | 154 to 156 |  |  |  |  |  |  |  |  |  |  |  |  |
